We go through one molecule from patent US6916843B1, “Anti-inflammatory actions of cytochrome P450 expoxygenase-derived eicosanoids” (The United States of America as represented by the …, priority 1999, dated 2005).

This assay deals with RelA. Description: Cellular localization of RelA in TNF-α-stimulated endothelial cells. In kind it is cell-based. The note with it: co-treatment with TNF-α. From the text:
Co-treatment with [11,12]-EET prevented the nuclear accumulation of RelA. Since the nuclear translocation of RelA requires the degradation of its endogenous cytoplasmic inhibitor, inhibitor kappa B (IκB-α), we followed the fate of IκB-α after TNF-α stimulation in the presence or absence of [11,12]-EET. Stimulation of human endothelial cells with TNF-α caused a rapid and almost complete disappearance of IκB-α which was prevented by co-treatment with [11,12]-EET, but not [14,15]-EET.

Take `CCCCC/C=C\C[C@H]1O[C@H]1C/C=C\C/C=C\CCCC(=O)O` [[11,12]-EET]: the “effect on TNF-α-induced nuclear accumulation of RelA” value was “prevented”.
